Earlier results in US8048906B2, “Optically pure and enriched isomers of chelating ligands and contrast agents” (Catalyst Medical, priority 2003, dated 2011).
pKd: −log10 of the molar value.

Conditions: binds to HA; peptide isolated from a random 12-mer phage peptide library (Mummert et al., J. Exp. Med. 2000)

Question: With GAHWQFNALTVR as the sequence, how does the pKd read?
Answer: Its pKd is about 6.00.
